Structures can show the parent of a compound that is named as a salt.

The text below walks through data of patent US9346815B2, “5-chloro-2-difluoromethoxyphenyl pyrazolopyrimidine compounds, compositions and methods of use thereof” (Genentech, Inc., priority 2014, dated 2016).

Test [1] deals with isolated recombinant JAK2 kinase domain (Homo sapiens (Human), UniProt O60674). Put plainly: JAK2 enzyme assay (Caliper LabChip, peptide phosphorylation). The note with it: 25 μM ATP. The test is classed as biochemical.
Test [2] has as its target isolated recombinant JAK1 kinase domain (Homo sapiens (Human), UniProt P23458). The test can be described thus: JAK1 enzyme assay (Caliper LabChip, peptide phosphorylation). The test is classed as biochemical. The note with it: isolated recombinant JAK1 kinase domain, 25 μM ATP.
In test [3] the test system is JAK1-dependent STAT6 phosphorylation downstream of IL-13 stimulation in TF-1 human erythroleukemia cells. The test can be described thus: JAK1 pathway assay in TF-1 cells (IL-13-pSTAT6, MSD). Format: cell-based. The note with it: Homo sapiens, TF-1, TF-1 cells, read-out: IL13-pSTAT6 EC50_TF-1. The procedure, abridged:
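Inhibitors were added to TF-1 cells (GM-CSF-starved, serum-free) for 30 min or to BEAS-2B cells (complete medium) for 1 hr at 37° C. MSD detected pSTAT6.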

isolated recombinant JAK1 kinase domain, sequence (P23458 875-1153): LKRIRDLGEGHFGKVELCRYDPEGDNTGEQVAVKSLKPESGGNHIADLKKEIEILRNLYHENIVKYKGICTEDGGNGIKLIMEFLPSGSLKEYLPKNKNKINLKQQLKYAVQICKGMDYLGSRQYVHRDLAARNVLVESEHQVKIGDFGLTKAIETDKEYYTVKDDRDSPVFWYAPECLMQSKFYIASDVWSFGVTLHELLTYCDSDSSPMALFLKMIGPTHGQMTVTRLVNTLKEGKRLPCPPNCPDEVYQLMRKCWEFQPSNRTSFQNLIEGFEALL
isolated recombinant JAK2 kinase domain, sequence (O60674 849-1124): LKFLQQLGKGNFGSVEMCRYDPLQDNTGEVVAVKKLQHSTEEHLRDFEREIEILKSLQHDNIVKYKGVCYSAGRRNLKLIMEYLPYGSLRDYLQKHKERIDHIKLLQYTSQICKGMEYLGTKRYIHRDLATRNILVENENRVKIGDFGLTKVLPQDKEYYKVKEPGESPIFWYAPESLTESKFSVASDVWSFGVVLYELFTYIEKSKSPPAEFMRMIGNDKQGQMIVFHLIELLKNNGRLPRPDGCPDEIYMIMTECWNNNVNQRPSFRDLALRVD

In the case of `CS(=O)(=O)CCN1C[C@@H]2CN(C(=O)Cn3cc(NC(=O)c4cnn5cccnc45)c(-c4cc(Cl)ccc4OC(F)F)n3)C[C@@H]2C1` [Example 31, N-[1-[2-[(3aS,6aR)-2-(2-methylsulfonylethyl)-1,3,3a,4,6,6a-hexahydropyrrolo[3,4-c]pyrrol-5-yl]-2-oxo-ethyl]-3-[5-chloro-2-(difluoromethoxy)phenyl]pyrazol-4-yl]pyrazolo[1,5-a]pyrimidine-3-carboxamide], the Ki was 0.53 nM in test [1] and 0.37 nM in test [2]. Moreover, in test [3], the EC50 came out at 102 nM.

`O=C(Nc1cn(C2CCN(CCCN3CCOCC3)CC2)nc1-c1cc(Cl)ccc1OC(F)F)c1cnn2cccnc12` [Example 158, N-[3-[5-chloro-2-(difluoromethoxy)phenyl]-1-[1-(3-morpholinopropyl)-4-piperidyl]pyrazol-4-yl]pyrazolo[1,5-a]pyrimidine-3-carboxamide]: the values for the Ki in test [1] and in test [2] were 0.26 nM and 2.12 nM, respectively. The EC50 in test [3] was found to be 38.8 nM.

As to `Nc1nn2cccnc2c1C(=O)Nc1cn(C2CCN(CCCO)CC2)nc1-c1cc(Cl)ccc1OC(F)F` [Example 176, 2-amino-N-[3-[5-chloro-2-(difluoromethoxy)phenyl]-1-[1-(3-hydroxypropyl)-4-piperidyl]pyrazol-4-yl]pyrazolo[1,5-a]pyrimidine-3-carboxamide], the Ki amounted to 0.12 nM in test [1] and 0.68 nM in test [2]. Moreover, the EC50 in test [3] came out at 12.7 nM.

For `CN(Cc1ccc(C(C)(C)C)cc1)C1CCN(C(=O)Cn2cc(NC(=O)c3cnn4cccnc34)c(-c3cc(Cl)ccc3OC(F)F)n2)CC1` [Example 120, N-[1-[2-[4-[(4-tert-butylphenyl)methyl-methyl-amino]-1-piperidyl]-2-oxo-ethyl]-3-[5-chloro-2-(difluoromethoxy)phenyl]pyrazol-4-yl]pyrazolo[1,5-a]pyrimidine-3-carboxamide], the Ki was 0.23 nM in test [1] and 0.3 nM in test [2]. For the same compound, in test [3], the EC50 was found to be 118 nM.

Turning to `O=C(CCCN1CCC(n2cc(NC(=O)c3cnn4cccnc34)c(-c3cc(Cl)ccc3OC(F)F)n2)CC1)NC1CCOCC1` [Example 152, N-[3-[5-chloro-2-(difluoromethoxy)phenyl]-1-[1-[4-oxo-4-(tetrahydropyran-4-ylamino)butyl]-4-piperidyl]pyrazol-4-yl]pyrazolo[1,5-a]pyrimidine-3-carboxamide], the Ki in test [1] came to 0.19 nM; in test [2], 1.08 nM. Moreover, in test [3], the EC50 was determined as 11.9 nM.

For the compound `CCNC1CCN(C(=O)Cn2cc(NC(=O)c3c(N)nn4cccnc34)c(-c3cc(Cl)ccc3OC(F)F)n2)CC1` [Example 75, 2-amino-N-[3-[5-chloro-2-(difluoromethoxy)phenyl]-1-[2-[4-(ethylamino)-1-piperidyl]-2-oxo-ethyl]pyrazol-4-yl]pyrazolo[1,5-a]pyrimidine-3-carboxamide], the results for the Ki in test [1] and in test [2] were 0.61 nM and 0.66 nM, respectively. In addition, the EC50 in test [3] was found to be 78.7 nM.

With `CN1C[C@H]2CN(C(=O)Cn3cc(NC(=O)c4cnn5cccnc45)c(-c4cc(Cl)ccc4OC(F)F)n3)C[C@@]2(c2ccccc2)C1` [Example 43, N-[1-[2-[(3aS,6aS)-2-methyl-3a-phenyl-3,4,6,6a-tetrahydro-1H-pyrrolo[3,4-c]pyrrol-5-yl]-2-oxo-ethyl]-3-[5-chloro-2-(difluoromethoxy)phenyl]pyrazol-4-yl]pyrazolo[1,5-a]pyrimidine-3-carboxamide], the Ki in test [1] is 0.36 nM; in test [2], 0.66 nM. In addition, the EC50 in test [3] came out at 15 nM.

Take `O=C(Nc1cn(CC(=O)N2CC[C@@H]3CNCC[C@@H]32)nc1-c1cc(Cl)ccc1OC(F)F)c1cnn2cccnc12` [Example 20, N-[1-[2-[(3aR,7aS)-2,3,3a,4,5,6,7,7a-octahydropyrrolo[3,2-c]pyridin-1-yl]-2-oxo-ethyl]-3-[5-chloro-2-(difluoromethoxy)phenyl]pyrazol-4-yl]pyrazolo[1,5-a]pyrimidine-3-carboxamide]: the Ki in test [1] amounted to 1.21 nM; in test [2] it was 0.51 nM. Also, in test [3], the EC50 was 344 nM.

Turning to `CN1CC[C@@H]2[C@@H](CCN2C(=O)Cn2cc(NC(=O)c3cnn4cccnc34)c(-c3cc(Cl)ccc3OC(F)F)n2)C1` [Example 24, N-[1-[2-[(3aS,7aR)-5-methyl-3,3a,4,6,7,7a-hexahydro-2H-pyrrolo[3,2-c]pyridin-1-yl]-2-oxo-ethyl]-3-[5-chloro-2-(difluoromethoxy)phenyl]pyrazol-4-yl]pyrazolo[1,5-a]pyrimidine-3-carboxamide], the Ki in test [1] turned out to be 2.02 nM; in test [2] it was 0.78 nM. In addition, the EC50 in test [3] came to 4.9 nM.

As to `O=C(Nc1cn(CC(=O)N2C[C@H]3CN(CC4(O)CCCCC4)C[C@H]3C2)nc1-c1cc(Cl)ccc1OC(F)F)c1cnn2cccnc12` [Example 46, N-[1-[2-[(3aS,6aR)-2-[(1-hydroxycyclohexyl)methyl]-1,3,3a,4,6,6a-hexahydropyrrolo[3,4-c]pyrrol-5-yl]-2-oxo-ethyl]-3-[5-chloro-2-(difluoromethoxy)phenyl]pyrazol-4-yl]pyrazolo[1,5-a]pyrimidine-3-carboxamide], the Ki in test [1] was found to be 0.7 nM; in test [2] it was 0.58 nM. The EC50 in test [3] turned out to be 8.2 nM.

For the compound `CCOC(=O)CCCN1CCC(n2cc(NC(=O)c3c(N)nn4cccnc34)c(-c3cc(Cl)ccc3OC(F)F)n2)CC1` [Example 175, ethyl 4-[4-[4-[(2-aminopyrazolo[1,5-a]pyrimidine-3-carbonyl)amino]-3-[5-chloro-2-(difluoromethoxy)phenyl]pyrazol-1-yl]-1-piperidyl]butanoate], the Ki is 0.13 nM in test [1] and 0.78 nM in test [2]. Moreover, the EC50 in test [3] was 13.4 nM.

As for `CN(CCCN1CCC(n2cc(NC(=O)c3c(N)nn4cccnc34)c(-c3cc(Cl)ccc3OC(F)F)n2)CC1)C(=O)c1ccccc1` [Example 151, 2-amino-N-[1-[1-[3-[benzoyl(methyl)amino]propyl]-4-piperidyl]-3-[5-chloro-2-(difluoromethoxy)phenyl]pyrazol-4-yl]pyrazolo[1,5-a]pyrimidine-3-carboxamide], the Ki in test [1] amounted to 0.42 nM; in test [2], 2 nM. For the same compound, the EC50 in test [3] stood at 93.8 nM.

With `O=C(Nc1cn(CC(=O)N2CCC[C@H]2C(O)CO)nc1-c1cc(Cl)ccc1OC(F)F)c1cnn2cccnc12` (stereo partly drawn) [Example 267, N-[3-[5-chloro-2-(difluoromethoxy)phenyl]-1-[2-[(2S)-2-(1,2-dihydroxyethyl)pyrrolidin-1-yl]-2-oxo-ethyl]pyrazol-4-yl]pyrazolo[1,5-a]pyrimidine-3-carboxamide], the Ki in test [1] came to 0.62 nM; in test [2], 0.66 nM. Further, the EC50 in test [3] is 35.8 nM.

In the case of `CCN1C[C@@H]2CN(C(=O)Cn3cc(NC(=O)c4cnn5cccnc45)c(-c4cc(Cl)ccc4OC(F)F)n3)C[C@@H]2C1` [Example 5, Cis pyrazolo[1,5-a]pyrimidine-3-carboxylic acid {3-(5-chloro-2-difluoromethoxyphenyl)-1-[2-(5ethyl-hexahydro-pyrrolo[3,4-c]pyrrol-2-yl)-2-oxoethyl]-1H-pyrazol-4-yl}amide hydrochloride], the Ki in test [1] was 0.78 nM; in test [2], 0.84 nM. Moreover, the EC50 in test [3] is 11.1 nM.

What is called Ki is the dissociation constant of the complex between target and ligand, obtained from inhibition or displacement.
